Here are results for 14 compounds from US20100267795A1, “NITROSUBSTITUTED ARYLOXYALKYLIMIDAZOLINES FOR USE AS PESTICIDES” (SYNGENTA CROP PROTECTION, INC., priority 2007, published 2010).

Holding throughout (assay type): in vivo
The test system of data set [1] is Myzus persicae (green peach aphid). Put plainly: Myzus persicae (green peach aphid) pea seedling root uptake test. To be noted: for control (mortality): 24 ppm test solution, roots of infested pea seedlings, 6 days after introduction; for mortality at 24 ppm: Myzus persicae, 144 h, read-out: control (mortality). From the text: Roots of pea seedlings, infested with an aphid population of mixed ages, were placed directly in the test solutions of 24 ppm. 6 days after introduction, samples were checked for mortality. The following compounds gave 100% control: 1.004 and 1.012. The following compounds gave 80% control: 1.001, 1.002, 1.009, 1.013 and 1.016. The following compound gave 50% control: 1.003.

The subject of data set [2] is Heliothis virescens (tobacco budworm). Put plainly: Heliothis virescens (tobacco budworm) egg/larva test on artificial diet. To be noted: for control (egg mortality, larval mortality, growth regulation): 200 ppm by pipetting, eggs 0-24 h old on artificial diet, 4 days incubation; for mortality at 200 ppm: Heliothis virescens, read-out: control (egg mortality, larval mortality, growth regulation). The procedure:
Eggs (0-24 h old) were placed in 24-well microtiter plate on artificial diet and treated with test solutions at an application rate of 200 ppm by pipetting. After an incubation period of 4 days, samples were checked for egg mortality, larval mortality, and growth regulation. The following compounds gave 100% control: 1.003 and 1.009. The following compounds gave 80% control: 1.001, 1.004, 1.005, 1.008 and 1.016. The following compounds gave 50% control: 1.013 and 1.017.

Data set [3] relates to Myzus persicae (green peach aphid). Put plainly: Myzus persicae (green peach aphid) sunflower leaf disc spray test. To be noted: for control (mortality): 200 ppm spray on sunflower leaf discs, aphid population of mixed ages, 6 DAT; for mortality at 200 ppm: Myzus persicae, foliar, 144 h, read-out: control (mortality). As to the method:
Sunflower leaf discs were placed on agar in a 24-well microtiter plate and sprayed with test solutions at an application rate of 200 ppm. After drying, the leaf discs were infested with an aphid population of mixed ages. After an incubation period of 6 DAT, samples were checked for mortality. The following compounds gave 100% control: 1.001, 1.002, 1.003, 1.004, 1.005, 1.006, 1.008, 1.009, 1.012, 1.013, 1.014, 1.016, 1.017 and 1.018. The following compounds gave 80% control: 1.007 and 1.011. The following compound gave 50% control: 1.010

Data set [4] relates to Tetranychus urticae (two-spotted spider mite). Put plainly: Tetranychus urticae (two-spotted spider mite) bean leaf disc spray test. To be noted: for mortality at 200 ppm: Tetranychus urticae, foliar, 192 h, read-out: control (egg mortality, larval mortality, adult mortality). From the text:
Bean leaf discs on agar in 24-well microtiter plates wer sprayed with test solutions at an application rate of 200 ppm. After drying, the leaf discs are infested with mite populations of mixed ages. 8 days later, discs are checked for egg mortality, larval mortality, and adult mortality. The following compounds gave 100% control: 1.001, 1.002, 1.003, 1.004, 1.006, 1.008, 1.009, 1.010, 1.012, 1.013, 1.014, 1.016, 1.017 and 1.018. The following compound gave 50% control: 1.011.

In the case of `CCC(Oc1cccc([N+](=O)[O-])c1C)C1=NCCN1` (stereo not drawn) [Compound 1.001], the “control (mortality)” value in data set [1] is on record as 80%. The “control (egg mortality, larval mortality, growth regulation)” value in data set [2] amounted to 80%.
`Cc1c(OC(C2=NCCN2)C(C)C)cccc1[N+](=O)[O-]` (stereo not drawn) [Compound 1.002]: the “control (mortality)” value in data set [1] is on record as 80%.
As to `Cc1c(OC(C2=NCCN2)C2CC2)cccc1[N+](=O)[O-]` (stereo not drawn) [Compound 1.003], the “control (mortality)” value in data set [1] is 50%. For the same compound, the “control (egg mortality, larval mortality, growth regulation)” value in data set [2] turned out to be 100%.
Regarding `CCCC(Oc1cccc([N+](=O)[O-])c1C)C1=NCCN1` (stereo not drawn) [Compound 1.004], the “control (mortality)” value in data set [1] worked out at 100%. In data set [2], the “control (egg mortality, larval mortality, growth regulation)” value amounted to 80%.
For the compound `CCCCC(Oc1cccc([N+](=O)[O-])c1C)C1=NCCN1` (stereo not drawn) [Compound 1.005], the “control (egg mortality, larval mortality, growth regulation)” value in data set [2] is given as 80%.
Take `CCC(Oc1cccc([N+](=O)[O-])c1C)C1=NCCN1C(=O)OC(C)(C)C` (stereo not drawn) [Compound 1.007]: in data set [3], the “control (mortality)” value is 80%.
Broadly, the mortality is the share of the test organisms that died. For the compound `CCC(Oc1cccc([N+](=O)[O-])c1Cl)C1=NCCN1` (stereo not drawn) [Compound 1.008, 2-[1-(2-Chloro-3-nitro-phenoxy)-propyl]-4,5-dihydro-1H-imidazole], the mortality at 200 ppm in data set [3] was 100%; in data set [4], 100%; in data set [2], 80%.
On to `CCCC(Oc1cccc([N+](=O)[O-])c1Cl)C1=NCCN1` (stereo not drawn) [Compound 1.009], for which the “control (mortality)” value in data set [1] worked out at 80%. In addition, in data set [2], the “control (egg mortality, larval mortality, growth regulation)” value is 100%.
Regarding `CCCC(Oc1cccc([N+](=O)[O-])c1Cl)C1=NCCN1C(=O)OC(C)(C)C` (stereo not drawn) [Compound 1.010], the “control (mortality)” value in data set [3] is reported as 50%.
Regarding `CCC(Oc1cccc([N+](=O)[O-])c1Cl)C1=NCCN1C(=O)OC(C)(C)C` (stereo not drawn) [Compound 1.011], the “control (mortality)” value in data set [3] is listed as 80%. The “control (egg mortality, larval mortality, adult mortality)” value in data set [4] (200 ppm spray on bean leaf discs, mite populations of mixed ages, 8 days) was 50%.
For the compound `COCC(Oc1cccc([N+](=O)[O-])c1C)C1=NCCN1` (stereo not drawn) [Compound 1.012, 2-[2-Methoxy-1-(2-methyl-3-nitro-phenoxy)-ethyl]-4,5-dihydro-1H-imidazole], the mortality at 200 ppm in data set [3] and in data set [4] was 100% in each case. Further, the mortality at 24 ppm in data set [1] was 100%.
In the case of `C=CCC(Oc1cccc([N+](=O)[O-])c1C)C1=NCCN1` (stereo not drawn) [Compound 1.013], in data set [1], the “control (mortality)” value turned out to be 80%. For the same compound, in data set [2], the “control (egg mortality, larval mortality, growth regulation)” value is reported as 50%.
Regarding `C=CCC(Oc1cccc([N+](=O)[O-])c1Cl)C1=NCCN1` (stereo not drawn) [Compound 1.016, 2-[1-(2-Chloro-3-nitro-phenoxy)-but-3-enyl]-4,5-dihydro-1H-imidazole], the mortality at 200 ppm worked out at 100% in data set [3], 100% in data set [4] and 80% in data set [2]. In addition, the mortality at 24 ppm in data set [1] worked out at 80%.
Regarding `COCC(Oc1cccc([N+](=O)[O-])c1Cl)C1=NCCN1` (stereo not drawn) [Compound 1.017], in data set [2], the “control (egg mortality, larval mortality, growth regulation)” value was 50%.
